The nature of one data set: Lipophilicity (logD). Type of data set: physicochemical.
A short description of data set [1]: Solubility in phosphate buffer. The class given is physicochemical. The following applies: read-out: solubility in phosphate buffer.
In data set [2] the test system is WT HeLa cells expressing hGPR65. The experiment in a line: Cytotoxicity assay (CellTiter-Glo, 72 hours). The class given is cell-based, human. How it is done: WT HeLa cells expressing hGPR65 were seeded at 2000 cells per well in 384-well plates. Compounds were tested in 10-point dose, starting at 50 μM. Cells were incubated with compounds for 72 hours at 37°C, 5% CO2. Cytotoxicity was measured using CellTiter-Glo Luminescent Cell Viability Assay (Promega, G7572) according to the manufacturer’s protocol. Luminescence measurements were made on BMG Labtech PHERAstar FSX. Data analysis was performed using GraphPad Prism.

Data set [3] deals with murine macrophages and T cells. Also noted: method as in PMID 22445881. As to conditions: murine macrophages and T cells ref 33; cited from earlier work.
The target of another data set is T1, mGPR65 (Mus musculus, UniProt Q61038).
T1 construct: expressed in transfected cells; host or cells: HeLa (ATCC CCL-2), lentiviral transduction, pLX317
The experiment in a line: cAMP detection, GPR65 KO HeLa reconstituted with mGPR65. Type of data set: cell-based. The following applies: 0 to 50 μM, pH 7.2. As for the experimental part:
The Lance Ultra cAMP Kit (PerkinElmer, TRF0264) was used for cAMP detection, and included the following reagents: ULight anti-cAMP antibody, Eu-cAMP tracer, 7.5% BSA Stabilizer solution, and cAMP detection buffer. Stimulation buffer was prepared as described by the kit manufacturer as follows: Hanks buffered saline solution (HBSS, Life Technologies, 14025-126) containing 0.5 mM IBMX (3-isobutyl-1-methylxanthine, Sigma-Aldrich, I7018) and buffered with 1 M Hepes (15630-080). […] HeLa cells were lifted using Versene and then suspended at 2.5 × 10^5 cells/ml in stimulation buffer. Cells were then plated at 20 μl per well (5000 cells per well) in white, opaque OptiPlate 384-well MicroPlates (PerkinElmer, 6007299) using a Thermo Fisher Scientific Combi liquid dispenser. […] Eu-cAMP tracer and Förster resonance energy transfer (FRET) emissions were then read using a PerkinElmer EnVision Multimode plate reader (ENVISION21040010), exciting each well at 320 nm [UV2 (TRF) 320 filter] and reading emissions at 615 nm (Europium 615 filter) and 665 nm (APC665 filter). […]

Data set [4] deals with GPR65 WT mouse splenocytes. The experiment in a line: cAMP detection in GPR65 WT mouse splenocytes. The class given is cell-based. The following applies: 0 to 50 μM, pH 7.2, GPR65-dependent. As for the experimental part:
cAMP was measured in cells using the Lance Ultra cAMP Kit. Spleens were harvested from GPR65 WT and GPR65 KO mice, homogenized and passed through a 70-μm cell strainer into harvest buffer [PBS, 0.5% bovine serum albumin (BSA), and 2 mM EDTA]. Cells were then centrifuged, washed with harvest buffer, and resuspended in red blood cell lysis buffer for 10 min at RT. Cells were counted and resuspended in assay buffer (25-ml DMEM, 0.5-ml 7.5% sodium bicarbonate, and 333-μl 7.5% BSA stabilizer) and adjusted to pH 7.2 with 1 M NaOH. Splenocytes were added to a white opaque OptiPlate 384-well microplates at a density of 100,000 cells per well in 20 μl. Compounds were added into the wells using a pin transfer tool, and plates were incubated at 37°C, 5% CO2 for 40 min. Each detection reagent (5 μl) was added to the plate and incubated at RT in the dark for 1 hour. Eu-cAMP tracer and FRET emissions were read using a PerkinElmer EnVision Multimode plate reader (ENVISION21040010). Data analysis was performed using GraphPad Prism.

Here are results for 2 molecules from PMC11259170, “Small-molecule probe for IBD risk variant GPR65 I231L alters cytokine signaling networks through positive allosteric modulation” (Science Advances, 2024).

Structures are written as SMILES. Values after ≈ are worked out from the molar mass of the structure shown. Like-named read-outs stand apart in the source and are kept apart here.

T1 sequence (Q61038 whole entry): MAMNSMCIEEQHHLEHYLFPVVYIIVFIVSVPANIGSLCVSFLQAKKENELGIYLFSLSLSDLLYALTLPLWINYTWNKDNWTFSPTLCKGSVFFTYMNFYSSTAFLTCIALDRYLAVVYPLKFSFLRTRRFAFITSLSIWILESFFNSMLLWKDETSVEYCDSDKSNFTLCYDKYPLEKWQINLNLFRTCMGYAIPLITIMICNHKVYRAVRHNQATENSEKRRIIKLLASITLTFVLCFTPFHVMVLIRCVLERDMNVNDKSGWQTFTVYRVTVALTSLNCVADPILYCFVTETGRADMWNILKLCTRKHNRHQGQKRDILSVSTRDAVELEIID

In the case of `Cc1ccc(NC(=O)c2cnn3c(O)cc(-c4ccc(COC(C)C)cc4)nc23)nc1` [BRD5075, O=C(NC1=NC=C(C)C=C1)C2=C3N(N=C2)C(O)=CC(C4=CC=C(COC(C)C)C=C4)=N3], the logD (as a rule, lipophilicity at a set pH, counting ionised and neutral species) in “Lipophilicity (logD)” (pH 7.4, pH7.4, read-out: LogD (pH7.4)) worked out at 3.57; in the data set “Lipophilicity (logD)” (read-out: lipophilicity (logD)) it was 3.57. In data set [1], the solubility (in general, how much of the substance goes into solution per volume) was found to be 116 µM (≈ 48.4 µg/mL). In addition, the cell viability result in data set [2] (50 μM, 72 hours) is reported as “slight decrease in cell viability”. For the same molecule, the cytotoxicity entry in data set [2] (72-hour incubation, 0-50 μM) is reported as “not cytotoxic”.

For the molecule `CN1N=C(SCc2ccc(Cl)cc2Cl)Sc2c1cnn(C)c2=O` [BTB09089, reference compound], in data set [3], the “cAMP production through the Gαs-coupled pathway” value is “increased cAMP production”. Moreover, the “cAMP response, BTB09089 compared with BRD2813” value on mGPR65 is listed as “more effective”. For the same molecule, the “cAMP production in mouse splenocytes, compared” value in data set [4] is recorded as “induced higher cAMP production than BRD2813”.
